Measured values as given in patent US7015250B2, “Methods and pharmaceutical preparations for normalizing blood pressure with (-)-hydroxycitric acid” (Glykon Technologies Group, LLC, priority 2000, dated 2006).
“And” between values parts separate entries of the source, which are not always exact repeats. Identical values can stand only once.

Legend:
[1] = serum NEFA, insulin and corticosterone in rats on a moderate fat diet given potassium hydroxycitrate for 60 days; format: in vivo; conditions: student's T test
Source text: Therefore, animal tests were scrutinized to determine if variations in serum levels of non-esterified fatty acids (NEFA), insulin and corticosterone could explain the novel findings. Ten-week old male rats were placed on a moderate fat diet (30% of calories, which is a high-fat diet for rats) for 60 days. These rats were fed water or potassium hydroxycitrate (0.33 mmols/kg) twice daily by gastric intubation, but were otherwise provided with food and water ad libitum. Five animals were used as controls and two different formulas of potassium hydroxycitrate were provided to five animals each. The differences between control (5 data points) and active (10 data points) were then analyzed according to the student's T test. […] Both of these factors could play a role in the clinical findings of lowered blood pressure in hypertensive individuals. Elevated insulin levels are known to be associated with hypertension. Glucocorticoids, similarly, are associated with hypertension through a variety of mechanisms, including sodium retention.

[2] = treated rats, diets mostly of glucose (e.g. 70% glucose); Sullivan and Triscari 1976; cited from earlier work
[3] = pilot open clinical weight loss trial with a pouch delivery form of potassium (−)-hydroxycitrate in extremely obese patients (blood pressure, weight, tolerability); format: in vivo, human; design: Starting Blood Pressure: unit not given here
Source text: Blood pressure data was acquired from a multi-week pilot open clinical weight loss trial with extremely obese patients which was undertaken to gauge the effects of a pouch delivery form of a potassium salt of (−)-hydroxycitrate under the normal circumstances faced in clinical practice with this patient population. Sixteen patients were enrolled, three of whom were diabetics on medications or insulin. Several others were suspected of suffering from insulin resistance. The patients ingested 3–4 grams of HCA per day in two divided doses. Aside from being informed that they must eat a carbohydrate-containing meal within one hour of taking the HCA and that they should avoid eating late in the day, they were not instructed to follow any special diet or exercise plan outside their normal habits and no caloric restriction was imposed. This particular form of potassium (−)-hydroxycitrate delivery typically was mixed into water or juice and consumed at mid-morning and mid-afternoon. The delivery was a water-soluble immediate release form. […] A number of patients continued on the program for 6 weeks. […] Several other patients experienced good appetite suppression, yet also complained of episodic tiredness at the beginning of the program, a sign of low blood sugar. Two patients subsequently were placed on phentermine. […] The average weight loss over the 3 week period for these 14 patients was approximately 3.1 pounds per person per week. The clinical decision was made that potassium (−)-hydroxycitrate in an immediate release format can exercise a strong hypoglycemic effect in diabetics and that it appears to influence blood sugar levels in protodiabetics, as well. At therapeutically effective dosages, HCA probably should be used with diabetic populations only under a physician's care.
Along with the hypoglycemic effect of the potassium hydroxycitrate, a quite surprising finding was that blood pressure levels in eight patients began to normalize rapidly with this treatment. Elevated blood pressure is common with obese and insulin-resistant patients, and therefore it was unremarkable that in this patient population (ages ranging roughly 30 to 60) that almost one half suffered from hypertension. Following are the readings for the eight hypertensive patients. Many of these patients had been advised to lower salt intake and to increase potassium and magnesium intake. […]

O=C(O)CC(O)(C(=O)O)C(O)C(=O)O (single isomer, unassigned; (-)) [HCA, (−)-Hydroxycitric acid]
corticosterone levels, HCA groups versus control ([1]; pooled active (10) vs control (5), one-tailed P 0.0013, two-tailed P 0.0026): very significantly lower | insulin levels, HCA groups versus control ([1]; pooled active (10) vs control (5), one-tailed P 0.0306, two-tailed P 0.0612): significantly lower | NEFA, HCA groups versus control ([1]; pooled active (10 data points) vs control (5)): no significant difference | plasma levels of glucose, insulin, or free fatty acids relative to controls [2]: no significant differences

O=C([O-])CC(O)(C(=O)[O-])C(O)C(=O)[O-].[K+].[K+].[K+] (stereo not drawn) [potassium hydroxycitrate, potassium (−)-hydroxycitrate]
hypotensive effect ([3]; as little as 3 grams of HCA per day in divided doses (5 grams of the salt), manifests over one to several weeks): significant hypotensive effect | Starting Blood Pressure ([3]; baseline reading of each of the eight hypertensive, extremely obese patients before treatment): 150/88 and 178/100 and 130/98 and 150/98 and 140/78 and 180/88 and 120/80 and 170/100 | weight loss of one patient ([3]; one patient who followed the program for 10 weeks, 3–4 grams of HCA per day): 32 pounds | average weight loss ([3]; over the 3 week period, 14 patients, 3–4 grams of HCA per day, no caloric restriction): approximately 3.1 pounds per person per week | tolerability ([3]; pre-commercial pouch preparation, patients complained of inconvenience and poor taste): no other issues of tolerability | hypoglycemic reactions ([3]; two of the diagnosed diabetics on medications or insulin, 3–4 grams of HCA per day, immediate release): severe hypoglycemic reactions
